{
  "source": "patent US12195432B2",
  "about": "“2-arylbenzimidazoles as Ppargc1a activators for treating neurodegenerative diseases” (THE BOARD OF TRUSTEES OF THE LELAND STANFORD JUNIOR …, priority 2018, dated 2025)",
  "key": {"[1]": {"test_system": "TNF-α production by BV2 cells or PBMC", "assay": "Cellular assay to measure TNF-α inhibition (LPS stimulation, ELISA)", "format": "cell-based, murine or human", "conditions": "100 ng/ml LPS over 24 hours, relative to DMSO vehicle, compound concentration and cell type not given", "description": "Oxidative metabolism exerts an anti-inflammatory effect on myeloid cell phenotype (O'Neill L A, Front Immunol. 2014) and Ppargc1a can promote this energy metabolic pathway (Spiegelman B M, Novartis Found Symp. 2007). Thus, pharmacological activation of Ppargc1a would be expected to inhibit the inflammatory response of myeloid cells. This phenomenon can be measured in cultures by a TNF-α inhibition assay.\nCellular Assay Protocol to Measure TNF-α Inhibition\nThe murine myeloid cell line BV2 or human peripheral blood mononuclear cells (PBMC) are cultured in RPMI 1640 media (Cat #11875119, Gibco) supplemented with 10% fetal bovine serum and 1% L-glutamine 1% penicillin. These cells are then stimulated with 100 ng/ml of lipopolysaccharide (LPS, O111:B4, Cat #L2630, Sigma) over 24 hours. LPS stimulation results in the secretion of the inflammatory cytokine TNF-α by BV2 cells or PBMC, which can be quantified by ELISA in culture supernatant samples per manufacturer's protocol (Cat #558273 for BV2 and Cat #558299 for PBMC, BD Biosciences). To determine whether example compounds 1-78 inhibit TNF-α production by BV2 cells or PBMC, the cells were cultured in the presence of the compounds at different concentrations, and fold reduction in TNF-α production relative to TNF-α production by the same cells cultured in the presence of dimethylsulfoxide (as vehicle control) was determined."}, "Caco-2 cells": {"test_system": "Caco-2 cells", "assay": "Caco-2 permeability assay", "format": "in vitro ADME", "conditions": "10 μM, pH 7.4, 2 h; for Caco2 A → B: apparent permeability A→B, without elacridar", "procedure": "Caco-2 Permeability Assay Protocol\nThe mixture was analyzed by LC-MS/MS."}, "[2]": {"assay": "Pharmacokinetic study (mouse): API levels in plasma, brain and liver", "format": "in vivo", "conditions": "mice, prodrug 10 mg/kg p.o., 0.5 h-4 h, API = example 1 compound; for plasma levels of API: FIG. 1; for brain levels of API: FIG. 2; for liver levels of API: FIG. 3", "procedure": "Pharmacokinetic studies (mouse) were performed on the example 1, 6-P, 8-P, and 11-P compounds of the present invention. The example 1, 6-P, 8-P, and 11-P compounds were dosed in mice at 10 mg/kg p.o. (n=2). Plasma, brain, and liver were harvested at 0.5 h, 1 h, 2 h, and 4 h. The samples were analyzed by LCMS to determine levels of the example 1 compound, i.e., the active pharmaceutical ingredient (API) for prodrug examples 6-P, 8-P, and 11-P."}},
  "data": [
    {"smiles": "Clc1ccc(-c2nc3ccccc3[nH]2)cc1", "note": "[Example 8, 2-(4-Chlorophenyl)-1H-benzo[d]imidazole]", "values": [
      {"measurement": "TNFα Inhibition", "setting": "[1]", "result": "C (C = <50% inh.)"}
    ]},
    {"smiles": "CC(C)(C)c1ccc(-c2nc3cc(C(F)(F)F)ccc3[nH]2)cc1", "note": "[Example 42, (4-tert-Butylphenyl)-5-(trifluoromethyl)-1H-benzo[d]imidazole]", "values": [
      {"measurement": "Caco2 B → A", "setting": "Caco-2 cells; apparent permeability B→A", "result": 1.2, "unit": "nm/s"}
    ]},
    {"smiles": "CC(C)(C)c1ccc(-c2nc3cc(C(N)=O)ccc3[nH]2)cc1", "note": "[Example 75, 2-(4-tert-Butylphenyl)-1H-benzo[d]imidazol-5-carboxamide]", "values": [
      {"measurement": "Caco2 A → B", "setting": "Caco-2 cells", "result": 16, "unit": "nm/s"}
    ]},
    {"smiles": "c1ccc(-c2nc3ccccc3[nH]2)cc1", "note": "[Example 14, 2-(Phenyl)-1H-benzo[d]imidazole]", "values": [
      {"measurement": "TNFα Inhibition", "setting": "[1]", "result": "C (C = <50% inh.)"}
    ]},
    {"smiles": "CC(C)(C)c1ccc(-c2nc3ccccc3n2COP(=O)([O-])[O-])cc1.[Na+].[Na+]", "note": "[Example 11-P, Disodium ((2-(4-(tert-butyl)phenyl)-1H-benzo[d]imidazol-1-yl)methyl) phosphate]", "values": [
      {"measurement": "plasma levels of API", "setting": "[2]", "result": "measurable amounts"},
      {"measurement": "brain levels of API", "setting": "[2]", "result": "measurable amounts"},
      {"measurement": "liver levels of API", "setting": "[2]", "result": "measurable amounts"}
    ]},
    {"smiles": "CC(C)(C)c1ccc(-c2nc3ccccc3n2COC(=O)c2ccc(CN)cc2)cc1.Cl", "note": "[Example 8-P, (4-(((2-(4-(tert-butyl)phenyl)-1H-benzo[d]imidazol-1-yl)methoxy)carbonyl)-phenyl)methylammonium hydrochloride]", "values": [
      {"measurement": "plasma levels of API", "setting": "[2]", "result": "measurable amounts"},
      {"measurement": "brain levels of API", "setting": "[2]", "result": "measurable amounts"},
      {"measurement": "liver levels of API", "setting": "[2]", "result": "measurable amounts"}
    ]},
    {"smiles": "CC(C)(C)c1cccc(-c2nc3ccccc3[nH]2)c1", "note": "[Example 58, 2-(3-tert-Butylphenyl)-1H-benzo[d]imidazole]", "values": [
      {"measurement": "Caco2 A → B", "setting": "Caco-2 cells", "result": 21, "unit": "nm/s"}
    ]},
    {"smiles": "CC(C)(C)c1ccc(-c2nc3ccccc3n2COC(=O)CCC(=O)O)cc1", "note": "[Example 6-P, 4-((2-(4-(tert-Butyl)phenyl)-1H-benzo[d]imidazol-1-yl)methoxy)-4-oxobutanoic acid]", "values": [
      {"measurement": "plasma levels of API", "setting": "[2]", "result": "measurable amounts"},
      {"measurement": "brain levels of API", "setting": "[2]", "result": "measurable amounts"},
      {"measurement": "liver levels of API", "setting": "[2]", "result": "measurable amounts"}
    ]},
    {"smiles": "CC(C)(C)c1ccc(-c2nc3ccccc3[nH]2)cc1", "note": "[Example 1, 2-(4-(tert-Butyl)phenyl)-1H-benzo[d]imidazole]", "values": [
      {"measurement": "TNFα Inhibition", "setting": "[1]", "result": "A (A = >80% inh.)"}
    ]}
  ]
}
